The assay addresses T1, COX-1 (ovine) (Ovis aries, UniProt P05979).
T1 sequence (P05979 25-600): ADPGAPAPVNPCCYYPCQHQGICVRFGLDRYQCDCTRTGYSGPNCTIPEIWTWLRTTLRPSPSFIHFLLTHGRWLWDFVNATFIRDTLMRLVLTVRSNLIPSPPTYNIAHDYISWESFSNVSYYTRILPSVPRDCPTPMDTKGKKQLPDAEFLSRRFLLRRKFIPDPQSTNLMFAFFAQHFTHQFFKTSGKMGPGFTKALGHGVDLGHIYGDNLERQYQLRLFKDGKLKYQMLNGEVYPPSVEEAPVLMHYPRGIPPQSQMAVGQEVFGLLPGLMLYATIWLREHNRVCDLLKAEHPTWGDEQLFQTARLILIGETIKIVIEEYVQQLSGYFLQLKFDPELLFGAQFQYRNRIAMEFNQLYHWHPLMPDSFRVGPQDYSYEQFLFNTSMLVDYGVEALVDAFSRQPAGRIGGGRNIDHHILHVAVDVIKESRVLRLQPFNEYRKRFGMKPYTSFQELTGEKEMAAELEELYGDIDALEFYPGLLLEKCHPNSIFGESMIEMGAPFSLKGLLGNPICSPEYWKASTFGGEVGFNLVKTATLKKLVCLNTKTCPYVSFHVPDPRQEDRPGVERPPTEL
As to the kind of experiment: 12-HHT formation from arachidonic acid, HPLC. The assay is classed as biochemical.

Broadly, the IC50 is the concentration needed to halve the response being measured. Higher therefore signals lower potency. For `CCCCCC(=O)Cc1cc(O)cc2c1C(=O)Oc1cc(O)c(C(=O)O)c(CCCCC)c1O2` [compound 2, physodic acid], the IC50 was > 30 µM.

Consider `CCCCCc1cc(OC(=O)c2c(O)cc(OC)cc2CCCCC)cc(O)c1C(=O)O` [compound 8, perlatolic acid], for which the IC50 is > 30 µM.

As to `CCCCCC(=O)Cc1cc(O)cc(O)c1C(=O)Oc1cc(O)c(C(=O)O)c(CCCCC)c1` [compound 9, olivetoric acid], the IC50 was > 30 µM.

The values are drawn from paper PMC3524419 (ChemMedChem, 2012).
